One may read the IC50 as the midpoint of a concentration-inhibition curve. In general, viability refers to a read-out of living cells in per cent, often relative to untreated cells.

Experimental findings from article PMC9412534, “Diindolylmethane Derivatives: New Selective Blockers for T-Type Calcium Channels” (Membranes, 2022) are described below.

Some results are limits rather than exact numbers.

One data set addresses T1, human CaV3.1 (Homo sapiens, UniProt O43497).
T1 construct: expressed in transfected cells; host or cells: HEK 293 T cells, transient transfection (FuGENE HD)
The data set can be described thus: T-type calcium channel window current FLIPR assay, CaV3.1. It is filed as cell-based. Particulars: n = 3, read-out: IC50 CaV3.1 (LVA CaVs). The method, then:
(§1) The human embryonic kidney 293 (HEK 293) cell lines (from Emmanuel Bourinet, Montpellier, France) stably expressing CaV3.2 or CaV3.3 were cultured under 5% carbon dioxide at 37 °C in Dulbecco’s Modified Eagle Medium (DMEM) Glutamax (Gibco, Life Technologies, Carlsbad, CA, USA) supplemented with 10% (v/v) fetal bovine serum (FBS), 100 U/mL penicillin, 100 μg/mL streptomycin (Gibco, Life Technologies, Carlsbad, CA, USA), and 750 μg/mL geneticin (G418) (Gibco, Life Technologies). The Chinese Hamster Ovary (CHO) cell lines (Emmanuel Bourinet, Montpellier, France) expressing CaV3.1 were cultured under 5% carbon dioxide at 37 °C in Alpha Minimum Essential Media (MEM) Glutamax (Gibco, Life Technologies), supplemented with 10% (v/v) fetal bovine serum (FBS) and 300 μg/mL geneticin (G418) (Gibco, Life Technologies). The human neuroblastoma SH-SY5Y cells (Victor Diaz, Goettingen, Germany) were cultured under 5% carbon dioxide at 37 °C in RPMI 1640 antibiotic-free medium (Invitrogen, Carlsbad, CA, USA), supplemented with 15% FBS and 2 mM GlutaMAX™ (Invitrogen). D-PBS (Gibco, Life Technologies) was used to wash the cells, and 0.25% Trypsin-EDTA (Gibco, Life Technologies) was used to detach cells from the flask surface. They were split in a ratio of 1:5 (ideally 1000 cells/cm^2) when they reached 70–80% confluence (every 2–3 days). Transiently transfected CaV3.1 HEK293 T cells were used in FLIPR Assays. HEK 293 T cells were cultured under 5% carbon dioxide at 37 °C in DMEM supplemented with 10% (v/v) FBS. D-PBS was used to wash the cells, and 0.25% Trypsin-EDTA was used to detach cells from the flask surface. The cells were split and seeded at 6 million cells per T175 flask, to reach 70–80% confluence after 24 h. The next day, 12 μg DNA of human CaV3.1 was incubated in 900 μL serum-free DMEM with 36 μL FuGENE HD transfection reagent (Promega Corporation, Madison, WI, USA) (1:3 DNA/Fugene ratio) for 20 min, and then the mixture was added into the cell flask slowly, drop by drop. After the transfection, the cells were cultured under 5% carbon dioxide at 37 °C for 24 h and then moved to a 28 °C incubator.
(§2) HEK 293 cells stably expressing CaV3.2 or CaV3.3 were seeded into 384-well black wall clear bottom plates (Corning) at a density of 30,000 cells per well. Transiently transfected CaV3.1HEK293 T cells were seeded into 384-well black wall clear bottom plates at a density of 60,000 cells per well. Once the cells reached 90–95% confluence after 24 h, the media were removed from the wells and replaced with 20 μL of 10% calcium 4 dye (Molecular Devices, Sunnyvale, CA, USA) in HBSS-HEPES (containing 5 mM KCl, 10 mM HEPES, 140 mM NaCl, 10 mM glucose, and 0.5 mM CaCl2, pH 7.4) with 0.1% bovine serum albumin (BSA). The cells were incubated for 30 min at 37 °C in the presence of 5% carbon dioxide. Each well on the reagent plates for the first addition contained 15 μL different concentrations of compounds dissolved in HBSS-HEPES containing 0.1% BSA and <0.5% DMSO and was incubated for 20 min after loaded. Positive and negative controls contained 15 μL of HBSS-HEPES (0.1% BSA) alone. The plates were placed in the FLIPR^TETRA (Molecular Devices, Sunnyvale, CA, USA) programmed to measure maximum fluorescence intensity following a second addition of the agonist 5 mM CaCl2. The fluorescence readings were recorded and converted as described previously, and HBSS-HEPES (0.1% BSA) was used in the second addition as a negative control.

The target in the next data set is CaV3.2 (Homo sapiens, UniProt O95180). The data set can be described thus: T-type calcium channel window current FLIPR assay, CaV3.2. It is filed as cell-based. Particulars: FLIPR window current, n = 3; read-out: IC50 CaV3.2 (LVA CaVs). How it is done:
as §1, §2

The next data set addresses CaV3.3 (Homo sapiens, UniProt Q9P0X4). The data set can be described thus: T-type calcium channel window current FLIPR assay, CaV3.3. It is filed as cell-based. Particulars: FLIPR window current; for IC50: n = 3, read-out: IC50 CaV3.3 (LVA CaVs). How it is done:
as §1, §2

A further data set concerns the target T2, CaV2.2 (Homo sapiens, UniProt Q00975).
T2 construct: endogenous in cells; host or cells: SH-SY5Y human neuroblastoma cells
The data set can be described thus: HVA N-type calcium channel FLIPR assay in SH-SY5Y cells. It is filed as cell-based. Particulars: 10 µM nifedipine present, n = 3, read-out: IC50 CaV2.2 (HVA CaVs). The method, then:
as §1
(§3) SH-SY5Y cells were seeded into 384-well black wall clear bottom plates at a density of 15,000 cells per well, resulting in 90–95% confluence after 24 h. The media were then removed from the wells and replaced with 20 μL of 10% calcium 4 dye (Molecular Devices) in physiological salt solution (PSS) (containing 5.9 mM KCl, 1.4 mM MgCl2, 10 mM HEPES, 1.2 mM NaH2 PO4, 5 mM NaHCO3, 140 mM NaCl, 11.5 mM glucose, and 1.8 mM CaCl2, pH 7.4) with 0.1% BSA. As reported, for N-type calcium channel FLIPR assays the cells were pre-incubated with 10 µM nifedipine added in the dye to ensure full inhibition of L-type calcium responses. For L-type calcium channel FLIPR assays, the cells were pre-incubated with 1 µM CVID added in the dye to ensure full inhibition of N-type calcium responses. Positive control on the first reagent plate contained 15 μL of PSS (0.1% BSA), whereas PSS (0.1% BSA) containing 1 µM CVID and 10 µM nifedipine (final concentration) was used as a negative control. The fluorescence readings were recorded and converted as described previously, and agonist containing 90 mM KCl + 5 mM CaCl2 was used in the second addition.

For another data set, the system named is CaV1. The data set can be described thus: HVA L-type calcium channel FLIPR assay in SH-SY5Y cells. It is filed as cell-based, human. Particulars: 1 µM CVID present, n = 3, read-out: IC50 CaV1 (HVA CaVs). The method, then: as §1, §3
In the next data set the test system is MCF-7 cells. The data set can be described thus: Cell viability MTT assay, MCF-7. It is filed as cell-based, human. Particulars: Homo sapiens, 72 h treatment; for viability at 50 µM: MCF7, 50 µM, n = 4. The method, then: (§4) Human breast cancer cell line MCF-7 and T-47D, lung cancer cell line A549, and colon cancer cell line HT-29 were cultured under 5% carbon dioxide at 37 °C in DMEM Glutamax (Gibco, Life Technologies) supplemented with 10% (v/v) FBS. They were split in a ratio of 1:3–1:6 (ideally 2–4 × 10,000 cells/cm^2) when they reached 70–80% confluence using 0.25% Trypsin-EDTA. For cell viability MTT assay, cells were seeded into 96-well clear bottom culture plates (Corning, Lowell, MA, USA) at a density of 5 × 10^3 cells/well and settled at 37 °C for 24 h.
(§5) Seeded cells were treated with various concentrations of compounds for desired time period (24, 48 and 72 h). After the treatments, the media were removed from each well, and replaced with 25 μL of serum-free media and 25 μL of MTT Reagent (cat. no., ab211091; Abcam, Cambridge, MA, USA). The plate was then incubated at 37 °C for 3 h, and 75 μL of MTT Solvent (cat. no., ab211091; Abcam) was added into each well after incubation. The absorbance was evaluated at 590 nm. Cell-wells treated with 0.1% DMSO were used as positive control and no cell-wells were used as background control.

Another data set concerns T-47D cells. The data set can be described thus: Cell viability MTT assay, T-47D. It is filed as cell-based, human. Particulars: Homo sapiens, T47D, 72 h treatment; for viability at 50 µM: n = 4. The method, then:
as §4, §5
In general terms: Formazan colour is commonly taken as a measure of viable cells.

The test system of another data set is A549 cells. The data set can be described thus: Cell viability MTT assay, A549. It is filed as cell-based, human. Particulars: for viability at 50 µM: A549, 50 µM, n = 4. How it is done:
as §4, §5

A further data set deals with HT-29 cells. The data set can be described thus: Cell viability MTT assay, HT-29. It is filed as cell-based, human. Particulars: for viability at 50 µM: HT-29, 50 µM, n = 4; for preferential anti-proliferative activity on HT-29: versus MCF-7, T-47D, A549. The method, then: as §4, §5
The test system of data set [1] is voltage-gated calcium channels (VGCC). The data set can be described thus: VGCC FLIPR cell-based assays, all channels (overall observation). Also on record: species or system human. The method, then:
as §2, §3

The nature of data set [2]: Solubility in assay buffer with 0.1% BSA. It is filed as physicochemical.

CaV3.3, sequence (Q9P0X4 whole entry): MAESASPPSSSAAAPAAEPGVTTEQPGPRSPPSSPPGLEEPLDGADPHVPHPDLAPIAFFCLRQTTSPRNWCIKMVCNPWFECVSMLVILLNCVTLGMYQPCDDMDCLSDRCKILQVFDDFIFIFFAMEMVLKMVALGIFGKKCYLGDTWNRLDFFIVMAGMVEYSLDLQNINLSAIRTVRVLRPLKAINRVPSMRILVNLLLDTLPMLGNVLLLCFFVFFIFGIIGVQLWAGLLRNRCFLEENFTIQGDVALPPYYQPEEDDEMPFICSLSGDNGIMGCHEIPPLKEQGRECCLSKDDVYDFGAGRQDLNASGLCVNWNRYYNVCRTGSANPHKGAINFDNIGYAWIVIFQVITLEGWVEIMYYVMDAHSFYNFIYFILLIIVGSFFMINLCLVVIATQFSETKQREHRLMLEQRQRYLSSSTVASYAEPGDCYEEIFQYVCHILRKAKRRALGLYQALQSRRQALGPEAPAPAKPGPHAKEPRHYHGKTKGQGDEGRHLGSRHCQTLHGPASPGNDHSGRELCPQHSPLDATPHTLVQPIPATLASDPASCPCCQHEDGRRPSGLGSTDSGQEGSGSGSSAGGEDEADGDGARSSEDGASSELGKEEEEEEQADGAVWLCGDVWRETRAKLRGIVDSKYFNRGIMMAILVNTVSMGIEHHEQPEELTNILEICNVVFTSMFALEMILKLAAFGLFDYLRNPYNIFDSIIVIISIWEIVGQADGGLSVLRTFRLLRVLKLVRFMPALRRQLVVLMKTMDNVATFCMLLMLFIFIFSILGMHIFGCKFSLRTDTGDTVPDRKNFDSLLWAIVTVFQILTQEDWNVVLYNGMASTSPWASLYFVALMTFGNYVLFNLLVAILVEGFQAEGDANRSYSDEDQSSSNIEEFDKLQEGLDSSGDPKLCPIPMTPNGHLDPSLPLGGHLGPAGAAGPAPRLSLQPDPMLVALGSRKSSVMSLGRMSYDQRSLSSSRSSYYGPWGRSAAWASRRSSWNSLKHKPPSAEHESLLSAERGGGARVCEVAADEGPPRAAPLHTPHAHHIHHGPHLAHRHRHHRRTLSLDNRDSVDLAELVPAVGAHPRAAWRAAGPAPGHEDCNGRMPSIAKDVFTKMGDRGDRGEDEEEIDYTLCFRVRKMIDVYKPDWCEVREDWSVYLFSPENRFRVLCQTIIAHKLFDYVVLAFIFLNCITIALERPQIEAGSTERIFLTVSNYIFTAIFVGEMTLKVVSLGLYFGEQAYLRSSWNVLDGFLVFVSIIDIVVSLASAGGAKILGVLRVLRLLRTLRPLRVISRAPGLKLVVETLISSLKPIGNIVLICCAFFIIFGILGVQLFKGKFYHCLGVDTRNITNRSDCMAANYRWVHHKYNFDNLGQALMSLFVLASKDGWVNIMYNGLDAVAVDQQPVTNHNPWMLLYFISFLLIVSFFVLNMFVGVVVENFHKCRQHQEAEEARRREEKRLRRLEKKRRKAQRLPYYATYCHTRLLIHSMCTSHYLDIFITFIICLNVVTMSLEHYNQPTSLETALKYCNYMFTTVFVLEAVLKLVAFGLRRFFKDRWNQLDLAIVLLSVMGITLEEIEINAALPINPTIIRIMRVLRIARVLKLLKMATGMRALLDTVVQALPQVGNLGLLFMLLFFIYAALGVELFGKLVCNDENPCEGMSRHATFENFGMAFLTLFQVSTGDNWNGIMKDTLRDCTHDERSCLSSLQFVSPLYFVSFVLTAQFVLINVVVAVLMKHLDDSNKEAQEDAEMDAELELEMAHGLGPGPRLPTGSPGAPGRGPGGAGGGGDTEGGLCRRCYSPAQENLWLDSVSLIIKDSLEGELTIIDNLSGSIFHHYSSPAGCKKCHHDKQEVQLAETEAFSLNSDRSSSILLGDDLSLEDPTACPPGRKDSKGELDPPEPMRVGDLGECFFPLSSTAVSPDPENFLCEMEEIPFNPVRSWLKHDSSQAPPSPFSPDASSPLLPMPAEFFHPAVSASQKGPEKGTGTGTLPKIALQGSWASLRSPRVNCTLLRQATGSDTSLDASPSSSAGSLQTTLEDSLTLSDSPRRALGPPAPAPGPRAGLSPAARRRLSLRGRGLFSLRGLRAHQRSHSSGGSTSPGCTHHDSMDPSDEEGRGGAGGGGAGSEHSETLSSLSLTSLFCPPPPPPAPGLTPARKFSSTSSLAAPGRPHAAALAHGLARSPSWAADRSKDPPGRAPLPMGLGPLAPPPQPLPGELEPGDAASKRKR
CaV3.2, sequence (O95180 whole entry): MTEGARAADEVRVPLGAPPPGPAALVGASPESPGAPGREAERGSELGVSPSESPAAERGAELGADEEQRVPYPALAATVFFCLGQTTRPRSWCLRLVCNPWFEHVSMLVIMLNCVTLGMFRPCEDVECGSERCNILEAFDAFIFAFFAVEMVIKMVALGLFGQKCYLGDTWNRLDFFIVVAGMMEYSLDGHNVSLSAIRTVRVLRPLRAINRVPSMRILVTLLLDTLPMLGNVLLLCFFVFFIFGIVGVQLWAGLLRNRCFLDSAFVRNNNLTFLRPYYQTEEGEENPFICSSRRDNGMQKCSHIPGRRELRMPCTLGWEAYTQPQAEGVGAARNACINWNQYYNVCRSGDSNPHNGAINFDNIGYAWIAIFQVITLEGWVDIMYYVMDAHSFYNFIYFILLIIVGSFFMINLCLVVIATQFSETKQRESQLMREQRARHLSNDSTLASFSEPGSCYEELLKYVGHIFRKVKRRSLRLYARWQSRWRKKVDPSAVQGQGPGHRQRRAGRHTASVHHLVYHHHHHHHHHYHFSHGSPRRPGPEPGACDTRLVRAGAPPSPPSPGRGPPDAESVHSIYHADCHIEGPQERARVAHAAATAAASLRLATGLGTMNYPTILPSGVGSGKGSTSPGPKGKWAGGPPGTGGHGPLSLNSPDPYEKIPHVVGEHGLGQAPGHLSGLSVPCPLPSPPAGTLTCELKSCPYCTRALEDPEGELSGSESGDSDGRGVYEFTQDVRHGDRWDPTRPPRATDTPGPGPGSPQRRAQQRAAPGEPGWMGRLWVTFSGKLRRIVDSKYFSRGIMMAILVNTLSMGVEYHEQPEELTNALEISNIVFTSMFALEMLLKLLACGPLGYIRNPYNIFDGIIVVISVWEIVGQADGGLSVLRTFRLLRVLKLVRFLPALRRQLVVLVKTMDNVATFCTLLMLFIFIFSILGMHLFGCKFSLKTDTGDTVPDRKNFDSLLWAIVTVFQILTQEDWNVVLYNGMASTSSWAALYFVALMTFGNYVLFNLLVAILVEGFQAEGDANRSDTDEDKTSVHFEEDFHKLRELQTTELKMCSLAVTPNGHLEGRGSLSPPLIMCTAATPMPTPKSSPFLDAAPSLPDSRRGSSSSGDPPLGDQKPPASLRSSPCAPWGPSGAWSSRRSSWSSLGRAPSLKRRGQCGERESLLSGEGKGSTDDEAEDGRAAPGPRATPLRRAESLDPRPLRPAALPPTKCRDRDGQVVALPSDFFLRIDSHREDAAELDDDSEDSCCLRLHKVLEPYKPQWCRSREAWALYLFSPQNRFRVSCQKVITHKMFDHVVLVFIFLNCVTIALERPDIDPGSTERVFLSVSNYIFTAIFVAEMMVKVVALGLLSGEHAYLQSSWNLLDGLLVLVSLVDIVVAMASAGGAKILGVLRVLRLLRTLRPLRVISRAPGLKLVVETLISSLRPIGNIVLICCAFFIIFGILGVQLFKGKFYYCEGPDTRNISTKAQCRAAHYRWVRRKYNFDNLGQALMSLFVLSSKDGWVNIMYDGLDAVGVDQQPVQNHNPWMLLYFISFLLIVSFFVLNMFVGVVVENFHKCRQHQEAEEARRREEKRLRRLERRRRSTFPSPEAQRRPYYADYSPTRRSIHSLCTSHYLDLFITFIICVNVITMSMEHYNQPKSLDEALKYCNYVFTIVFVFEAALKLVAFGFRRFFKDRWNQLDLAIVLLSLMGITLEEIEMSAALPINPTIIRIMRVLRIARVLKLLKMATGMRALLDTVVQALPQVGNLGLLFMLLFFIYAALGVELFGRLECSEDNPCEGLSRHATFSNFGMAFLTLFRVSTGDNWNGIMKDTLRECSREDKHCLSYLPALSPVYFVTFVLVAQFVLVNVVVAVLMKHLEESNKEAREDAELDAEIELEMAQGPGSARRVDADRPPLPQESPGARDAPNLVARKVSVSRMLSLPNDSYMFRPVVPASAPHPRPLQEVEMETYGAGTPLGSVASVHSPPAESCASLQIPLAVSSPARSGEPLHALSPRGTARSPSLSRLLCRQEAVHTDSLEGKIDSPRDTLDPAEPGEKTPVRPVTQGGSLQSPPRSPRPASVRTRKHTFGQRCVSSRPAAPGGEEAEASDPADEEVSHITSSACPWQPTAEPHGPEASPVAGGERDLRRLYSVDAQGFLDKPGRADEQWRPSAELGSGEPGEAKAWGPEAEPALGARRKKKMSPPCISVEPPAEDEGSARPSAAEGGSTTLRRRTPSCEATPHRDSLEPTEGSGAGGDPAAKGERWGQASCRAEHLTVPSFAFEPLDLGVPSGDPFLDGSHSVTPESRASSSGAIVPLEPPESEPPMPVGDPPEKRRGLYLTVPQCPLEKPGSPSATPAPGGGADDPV

Regarding `O=C(c1c[nH]c2ccccc12)c1cn(S(=O)(=O)O)c2ccccc12` [III], the half-maximal inhibitory concentration (IC50) at human CaV3.1 amounted to 58.8 ± 6.85 µM; at CaV3.2 it was 106 ± 11.8 µM; on CaV3.3 it was 17.8 ± 4.64 µM; at CaV2.2, 60.9 ± 3.37 µM; in the data set with CaV1, 192 ± 30.5 µM. At CaV3.3, the “inhibition against CaV3.3” value was “moderate inhibition”. For the same molecule, the viability at 50 µM in the data set on MCF-7 cells was determined as 84.9 ± 5.75%; with T-47D cells, 79.7 ± 3.74%; with A549 cells (Homo sapiens, 72 h treatment), 211 ± 4.69%; in the data set on HT-29 cells (Homo sapiens, 72 h treatment), 21.6 ± 1.1%. Moreover, in the data set with A549 cells (50 µM, 72 h), the “effect on A549 cell proliferation” value is listed as “promoted A549 cell proliferation”. The “preferential anti-proliferative activity on HT-29” value in the data set with HT-29 cells was “preferential anti-proliferative activity”.
For `CCOC(=O)C(=O)c1cn(S(=O)(=O)c2ccc(C)cc2)c2ccccc12` [VII], the half-maximal inhibitory concentration (IC50) on human CaV3.1 is 43.5 ± 3.72 µM; on CaV3.2 it was 17.1 ± 1.87 µM; at CaV3.3, 13.8 ± 2.02 µM; at CaV2.2, 32.1 ± 3.01 µM; in the data set on CaV1, 32.1 ± 0.84 µM.
Regarding `CCOC(=O)C(=O)c1c[nH]c2ccccc12` [VI], the IC50 is 154 ± 18.1 µM on human CaV3.1; more than 200 µM on CaV3.2; more than 200 µM on CaV3.3; 53.8 ± 2.43 µM at CaV2.2; more than 200 µM in the data set with CaV1. In [1], the “inhibition of all the Ca2+ responses” value was “poor inhibition”.
`O=C(c1c[nH]c2cc(Br)ccc12)c1cn(S(=O)(=O)O)c2cc(Br)ccc12` [V]: the IC50 at human CaV3.1 came out at 92.1 ± 4.69 µM; at CaV3.2, 67.5 ± 6.05 µM; at CaV3.3, 92.6 ± 1.46 µM; at CaV2.2, 90.2 ± 4.93 µM; with CaV1, 88.2 ± 7.95 µM; in the data set with MCF-7 cells (MCF7, 72 h, n = 3), 51 µM. Moreover, the IC50 in the data set with T-47D cells (72 h, n = 3) was 38 µM; with A549 cells (Homo sapiens, A549, 72 h, 72 h treatment, n = 3) it was 27 µM; in the data set on HT-29 cells (Homo sapiens, HT-29, 72 h, 72 h treatment, n = 3), 15 µM. In addition, the viability at 50 µM in the data set on MCF-7 cells is 29.52 ± 0.19%; in the data set on T-47D cells it was 31.4 ± 0.43%; in the data set on A549 cells (Homo sapiens, 72 h treatment) it was 14.1 ± 0.15%; in the data set on HT-29 cells (Homo sapiens, 72 h treatment), 0.93 ± 0.06%. The “better antiproliferative effect on HT-29 cell viability than on the other three cancer cell lines” value in the data set with HT-29 cells (72 h treatment) is on record as not below 2 fold. In the data set with HT-29 cells, the “preferential anti-proliferative activity on HT-29” value is on record as “preferential anti-proliferative activity”. Also, the “inhibition of all the Ca2+ responses” value in data set [1] is “poor inhibition”.
For the molecule `O=C(c1cn(S(=O)(=O)O)c2ccccc12)c1cn(S(=O)(=O)O)c2ccccc12` [XI, 3,3'-carbonylbis(1H-indole-1-sulfonic acid)], the “solubility in buffer” value in data set [2] is recorded as “highly insoluble”.
As for `Cc1ccc(S(=O)(=O)n2cc(C(=O)c3cn(S(=O)(=O)c4ccc(C)cc4)c4ccccc34)c3ccccc32)cc1` [X], the half-maximal inhibitory concentration (IC50) at human CaV3.1 came out at 53.4 ± 0.93 µM; on CaV3.2 it was 99.9 ± 3.56 µM; at CaV3.3, 78.3 ± 4.79 µM; at CaV2.2, 54.5 ± 1.84 µM; with CaV1 it was 47.9 ± 1.37 µM. Also, the “inhibition of all the Ca2+ responses” value in data set [1] is on record as “poor inhibition”.
